Consider five compounds from patent US4987067A, “Maltooligosaccharide derivatives and reagents for determination of amylase activity” (Yoshitomi Pharmaceutical Industries, Ltd., priority 1987, dated 1991).

Data set [1] in a line: Dissolution of substrate in the reagents of Example 3. In kind it is physicochemical. The settings on record: reagents of Example 3 without their substrates, 50 mM Good Buffer pH 7.0; substrate 2 mM in Example 3. From the text:
An attempt was made to use the substrates listed below instead of the substrates in Example 3, but the former substrates were not dissolved in the reagents in Example 3 (excluding substrates in Example 3).

The test system of a further data set is α-amylase. The experiment in a line: Change in absorbance per minute at 400 nm with sample serum (indication of amylase activity). Particulars: 3 ml reagent added to sample serum, 5-6 minutes at 37° C. In kind it is biochemical. How it is done:
(§1) With this reagent, variation in absorbance was determined in a similar manner to Example 2. A 3 ml quantity of the reagent was added to […] of sample serum and allowed to stand for 5-6 minutes at 37° C. and thereafter, the variation in absorbance at 400 nm was determined and the change in absorbance per one minute which is an indication of amylase activity was calculated The variation in blank value of the reagent with time and the change in absorbance per minute are shown in Table 2 below.

Data set [2] has as its system α-Glucosidase, β-Glucosidase. The experiment in a line: Variation in blank value of reagent with time (absorbance at 400 nm), reagent with α-glucosidase and β-glucosidase. The data set is classed as biochemical. Particulars: substrate 2 mM. The procedure:
Reagents having the following composition were prepared.
50 mM Good Buffer (pH 7.0)
Substrate (see Table 1) 2 mM
Immediately after the preparation of the reagents, after 10 minutes, 20 minutes and 30 minutes, the absorbance of each reagent at 400 nm was determined (3 ml of reagent sample; 37° C.).
The reagent having the following composition was prepared:
(§2) Substrate (see Table 2) 2 mM

The test system of data set [3] is α-Glucosidase, β-Glucosidase, Glucoamylase. Kind of data set: Variation in blank value of reagent with time (absorbance at 400 nm), reagent with α-glucosidase, β-glucosidase and glucoamylase. The data set is classed as biochemical. Particulars: Table 2, glucoamylase added (10 U/ml), substrate 2 mM; for Absorbance at 400 nm (blank value), on reaction initiation: pH 7.0, α-glucosidase 80 U/ml, β-glucosidase 10 U/ml; for Absorbance at 400 nm (blank value), after 10 min. / Absorbance at 400 nm (blank value), after 20 min. / Absorbance at 400 nm (blank value), after 30 min.: pH 7.0. How it is done: as §1
The reagent of the following composition was prepared:
as §2

Where [4] appears, read: Table 1, 50 mM Good Buffer pH 7.0, α-glucosidase 80 U/ml, β-glucosidase 10 U/ml, 37° C., immediately after preparation.
Setting [5] is: Table 1, pH 7.0, α-glucosidase 80 U/ml, β-glucosidase 10 U/ml, 37° C.
[6] abbreviates: Table 2, no glucoamylase, pH 7.0.

Each structure is given as a SMILES string.

Turning to `O=[N+]([O-])c1ccc(O[C@@H]2O[C@H](CO)[C@@H](O[C@H]3O[C@H](CO)[C@@H](O[C@H]4O[C@H](CO)[C@@H](O[C@H]5O[C@H](CO)[C@@H](O[C@H]6O[C@@H]7COC(c8ccccc8)O[C@H]7[C@H](O)[C@H]6O)[C@H](O)[C@H]5O)[C@H](O)[C@H]4O)[C@H](O)[C@H]3O)[C@H](O)[C@H]2O)c(Cl)c1` (stereo partly drawn) [Benzylidene 2-chloro-4-nitrophenyl-β-maltopentaoside], in data set [1], the “Solubility of substrate in the reagents in Example 3” value (“Solubility of substrate” below) is reported as “not dissolved”.
For `CC(=O)CC1OC[C@H]2O[C@H](O[C@H]3[C@H](O)[C@@H](O)[C@@H](O[C@H]4[C@H](O)[C@@H](O)[C@@H](O[C@H]5[C@H](O)[C@@H](O)[C@@H](O[C@H]6[C@H](O)[C@@H](O)[C@H](Oc7ccc([N+](=O)[O-])cc7Cl)O[C@@H]6CO)O[C@@H]5CO)O[C@@H]4CO)O[C@@H]3CO)[C@H](O)[C@@H](O)[C@@H]2O1` (stereo partly drawn) [Example 2, 3-ketobutylidene 2-chloro-4-nitrophenyl-β-maltopentaoside], the Change in absorbance amounted to 0.157 per minute in the data set with α-amylase (glucoamylase added (10 U/ml)) and 0.123 per minute in the data set with α-amylase (no glucoamylase). Moreover, the “Absorbance at 400 nm (blank value), on reaction initiation” value (“Absorbance … on reaction initiation” for short) in data set [2] (setting [4]) is on record as 0.049; in data set [2] (Table 2, no glucoamylase, pH 7.0, α-glucosidase 80 U/ml, β-glucosidase 10 U/ml) it was 0.050; in data set [3] it was 0.051. Besides, the “Absorbance at 400 nm (blank value), after 10 min.” value (from here on “Absorbance … after 10 min.”) in data set [2] (setting [5]) came out at 0.049; in data set [2] (setting [6]), 0.051; in data set [3], 0.051. The “Absorbance at 400 nm (blank value), after 20 min.” value (“Absorbance … after 20 min.” for short) in data set [2] (setting [5]) was found to be 0.049; in data set [2] (setting [6]) it was 0.051; in data set [3] it was 0.051. Moreover, the “Absorbance at 400 nm (blank value), after 30 min.” value (“Absorbance … after 30 min.” for short) amounted to 0.050 in data set [2] (setting [5]), 0.051 in data set [2] (setting [6]) and 0.052 in data set [3].
Regarding `CC1(C)OC[C@H]2O[C@H](O[C@H]3[C@H](O)[C@@H](O)[C@@H](O[C@H]4[C@H](O)[C@@H](O)[C@@H](O[C@H]5[C@H](O)[C@@H](O)[C@@H](O[C@H]6[C@H](O)[C@@H](O)[C@H](Oc7ccc([N+](=O)[O-])cc7Cl)O[C@@H]6CO)O[C@@H]5CO)O[C@@H]4CO)O[C@@H]3CO)[C@H](O)[C@@H](O)[C@@H]2O1` [Isopropylidene 2-chloro-4-nitrophenyl-β-maltopentaoside], the “Solubility of substrate” value in data set [1] is “not dissolved”.
For the compound `O=[N+]([O-])c1ccc(O[C@@H]2O[C@H](CO)[C@@H](O[C@H]3O[C@H](CO)[C@@H](O[C@H]4O[C@H](CO)[C@@H](O[C@H]5O[C@H](CO)[C@@H](O[C@H]6O[C@@H]7COCO[C@H]7[C@H](O)[C@H]6O)[C@H](O)[C@H]5O)[C@H](O)[C@H]4O)[C@H](O)[C@H]3O)[C@H](O)[C@H]2O)c(Cl)c1` [Methylidene 2-chloro-4-nitrophenyl-β-maltopentaoside], the “Solubility of substrate” value in data set [1] was “not dissolved”.
As for `O=[N+]([O-])c1ccc(O[C@@H]2O[C@H](CO)[C@@H](O[C@H]3O[C@H](CO)[C@@H](O[C@H]4O[C@H](CO)[C@@H](O[C@H]5O[C@H](CO)[C@@H](O[C@H]6O[C@H](CO)[C@@H](O)[C@H](O)[C@H]6O)[C@H](O)[C@H]5O)[C@H](O)[C@H]4O)[C@H](O)[C@H]3O)[C@H](O)[C@H]2O)c(Cl)c1` [compound 1, 2-chloro-4-nitrophenyl-β-maltopentaoside, reference compound], the Change in absorbance with α-amylase (glucoamylase added (10 U/ml)) is reported as 0.136 per minute. Besides, the “Absorbance … on reaction initiation” value in data set [2] (setting [4]) was 0.251. Also, in data set [2] (setting [5]), the “Absorbance … after 10 min.” value was found to be 0.273; the “Absorbance … after 20 min.” value was found to be 0.293; the “Absorbance … after 30 min.” value amounted to 0.323. Further, in data set [3], the “Absorbance … on reaction initiation” value came to 0.132; the “Absorbance … after 10 min.” value stood at 0.162; the “Absorbance … after 20 min.” value is listed as 0.192; the “Absorbance … after 30 min.” value worked out at 0.223.
